According to patent US4837399A, “Napthoquinone antibiotics from fuserium solani” (The United States of America as represented by the …, priority 1988, dated 1989):
Converted amounts (≈) assume the structure as drawn.

Assays:
Type in all cases: cell-based
[1] = system: Staphylococcus aureus; assay: Broth microdilution assay, Staphylococcus aureus; conditions: for MIC: A = Staphylococcus aureus, complete suppression of microbial growth, read-out: Antibacterial activity (MIC)
Experimental: (§1) Purified compounds were tested for antibiotic activity by dissolving in dimethyl sulfoxide and utilizing a standard broth microdilution assay. The smallest amount of compound resulting in complete inhibition of bacterial growth is the minimum inhibitory concentration (MIC).
(§2) The organisms used in the tests were three strains of gram-positive bacteria: Staphylococcus aureus, Streptococcus pyogenes, and a strain of Staphylococcus aureus which was resistant to the antibiotic methicillin.
(§3) Antimicrobial activity of compounds was determined against a group of bacterial pathogens, using a broth microdilution assay.Pathogens tested included Staphylococcus aureus, Streptococcus pyogenes, Escherichia coli, Serratia marcescens, Proteus vulgaris, Klebsiella pneumoniae, Salmonella typhi, and Pseudomonas aeruginosa. Activity against plant pathogenic bacteria was tested by applying acetone solutions of compounds to 14 mm Whatman No. 1 filter paper discs, drying and placing four discs/plate on freshly inoculated Kings medium B plates. Pseudomonas cepacia, P. cichorii, P. fluorescens, P. syringae pv. phaseolicola, P. viridiflava, and Xanthomonas campestris were exposed to discs containing 20 μg of compound; Curtobacterium flaccumfaciens pv. poinsettiae (formerly Corynebacterium poinsettiae) was tested at 20, 40, and 80 μg/disc. Using a similar assay procedure, Alternaria citri, Colletotrichum gloeosporioides, Diplodia natalensis, Fusarium solani, F. oxysporum, Geotrichum candidium, Phomopsis citri, and Phytophthora parasitica were tested to determine the antifungal properties of the compounds.

[2] = system: Streptococcus pyogenes; assay: Broth microdilution assay, Streptococcus pyogenes; conditions: for MIC: B = Streptococcus pyogenes, complete suppression of microbial growth, read-out: Antibacterial activity (MIC)
Experimental: as §1, §2, §3

[3] = system: Staphylococcus aureus 95 (resistant to methicillin); assay: Broth microdilution assay, Staphylococcus aureus 95 (resistant to methicillin)
Experimental: as §1, §2

[4] = system: gram-positive bacteria; assay: Broth microdilution assay, gram-positive bacteria overall
Experimental: as §1, §2
as §3, with “Using a similar assay procedure, Alternaria citri, Colletotrichum gloeosporioides, Diplodia natalensis, Fusarium solani, F. oxysporum, Geotrichum candidium, Phomopsis citri, and Phytophthora parasitica were tested to determine the antifungal properties of the compounds.” left out

[5] = system: Curtobacterium flaccumfaciens pv. poinsettiae; assay: Filter paper disc assay, Curtobacterium flaccumfaciens pv. poinsettiae; conditions: 20, 40, and 80 μg/disc, Kings medium B plates
Experimental: as §3
They were, however, effective against gram-positive bacteria.

Structure (SMILES) | effectiveness in control of Staphylococcus aureus (in words) [1] | MIC [1] [µg/mL] | preference for control of Streptococcus pyogenes (in words) [2] | MIC [2] [µg/mL] | preference for control of Staphylococcus aureus 95 (in words) [3] | MIC ([3]; C = Staphylococcus aureus 95 (resistant to methicillin), complete suppression of microbial growth, read-out: Antibacterial activity (MIC)) [µg/mL] | effectiveness against gram-positive bacteria (in words) [4] | MIC ([4]; read-out: inhibiting growth) [µg/mL] | ranking of activity against Curtobacterium flaccumfaciens pv. poinsettiae [5]
COc1cc(O)c2c(c1O)C(=O)C(CC(C)O)C(CO)C2=O (stereo not drawn) [Compound 1, 2,3-Dihydro-5,8-dihydroxy-6-methoxy-2-hydroxymethyl-3-(2-hydroxypropyl)-1,4-naphthalenedione] | most effective | 1 (≈ 3.22 µM) | preferred | 0.5 (≈ 1.61 µM) | preferred | 4 (≈ 12.9 µM) | the most effective | 0.5 to 1 (≈ 1.61 to 3.22 µM) | 
COC1=CC(=O)c2c(O)c(CO)c3c(c2C1=O)OC(C)C3 (stereo not drawn) [Compound 2, 2,3-Dihydro-5-hydroxy-4-hydroxymethyl-8-methoxy-2-methyl-naphtho [1,2-b]furan-6,9-dione] | most effective | 4 (≈ 13.8 µM) |  | 64 (≈ 220 µM) |  |  |  |  | most active
COC1=CC(=O)c2c(O)c(CO)c(CC(C)O)c(O)c2C1=O (stereo not drawn) [Compound 3, 5,8-Dihydroxy-2-methoxy-6-hydroxymethyl-7-(2-hydroxypropyl)-1,4-naphthalenedione] |  | 1 (≈ 3.24 µM) |  | 64 (≈ 208 µM) |  |  |  |  | followed by 1 and 3
